One assay deals with T1, FDX1 (Homo sapiens, UniProt P10109).
T1 construct: made in house
T1 sequence (P10109 62-184): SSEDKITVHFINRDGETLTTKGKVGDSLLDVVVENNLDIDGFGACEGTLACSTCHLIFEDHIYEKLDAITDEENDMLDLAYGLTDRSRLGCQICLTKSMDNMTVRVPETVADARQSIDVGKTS
In words: Electron transfer from reduced FDX1 to the cysteine desulfurase complex. It counts as biochemical. Particulars: upon addition of cysteine.

The test system of a further assay is HepG2 cells. Description: RNA-seq gene expression profiling, PSMD2 knockdown and control cells. It counts as cell-based, human. Particulars: control cells. Here is the method: FIGS. 3A-3E: Inhibition of bortezomib-mediated transcriptional responses in PSMD2 knockdown cells. RNA-seq gene expression profiling was conducted on cells that harbor two different shRNAs targeting PSMD2 (PSMD2-1, PSMD2-2) and on control cells (shLacZ). The effects of reducing PSMD2 levels on gene expression were highly correlated in both basal conditions (Pearson's r=0.99) and following bortezomib treatment (Pearson's r=0.94). […] Enrichment was calculated for the indicated gene sets and is presented as a normalized enrichment score (NES). […]
Gene expression analysis—RNA was extracted from triplicate samples and RNA libraries were prepared for sequencing by NEBNext Ultra RNA Library Prep Kit for Illumina (New England BioLabs, Ipswich, Mass.), including the removal of large and small RNA, synthesis of cDNA, and construction of cDNA libraries. […] Libraries were sequenced using Illumina HiSeq 2500, with paired-end 100 bp reads, Paired-end reads were aligned to UCSC human transcriptome 19 (hg19) using TopHat (Bowtie v2.0.9). Alignment quality and read distribute was assessed via SAMtools (v0.1.19) (Li et al., 2009). […] RNA sequencing data have been deposited in the NCBI Sequence Read Archive under accession number: PRJNA281613, […]

The next assay concerns T47D cells. Description: Combination of ABT-263 or ABT-199 with proteasome inhibitors, T47D cells with reduced PSMD2. It counts as cell-based, human. Conditions: T47D cells with reduced PSMD2, 72 hours. The source says:
FIG. 18: Plots showing effect of various concentrations of ABT-263 (upper panels) or ABT-199 (lower panels) in combination with various concentrations of ixazomib un viability of T47D cells with reduced expression of PSMD2 (KB) (right panels) or control cells (left panels). Fold viability refers to the number of viable cells of the indicated type (PSMD2 KD or control cells) after culture in the presence of the test compounds (ixazomib +ABT-263 or ixazomib +ABT-199) divided by the number of viable cells of that type after culture in the absence of the test compounds. The concentrations of ABT-263 or ABT-199 tested are shown in the legend on the right side of each panel. If no concentration is listed, the compound was absent. Fold viability of control cells cultured in the presence of ixazomib alone (i.e., in the absence ABT-263 or ABT-199) is also shown in the panels showing effect of ixazomib +ABT-263 or ixazomib +ABT-199 on PSMD2 KD cells. […]
FIGS. 21A-21C: (FIG. 21A) Plot showing synergy of ABT-263 with ixazomib in T47D cells with reduced expression of PSMD2. […] The y-axis on each plot is the calculated EC50 in micromoles for either ixazomib or bortezomib in the presence of sublethal doses of ABT-263 or A.BT-199 as indicated. Compounds were added to the cells at the same time and cell viability was measured 72 hours later.

The subject of assay [1] is IMR32 (reduced PSMD5) and Kelly neuroblastoma cells. In words: Viability of IMR32 versus Kelly neuroblastoma cells (CellTiter-Glo). It counts as cell-based, human. Conditions: other experiments, e.g., 0.1 uM. (ATP-based viability assays read luminescence as a measure of living cells.)

This is an account of results in patent publication US20180353445A1, “METHODS AND COMPOSITIONS RELATING TO PROTEASOME INHIBITOR RESISTANCE” (Whitehead Institute for Biomedical Research, priority 2017, published 2018).

On to `CN(NC(=O)CC(=O)NN(C)C(=S)c1ccccc1)C(=S)c1ccccc1` [elesclomol], for which the “electron transfer from reduced FDX1 to the cysteine desulfurase complex” value on FDX1 is “inhibits electron transfer”.
With `CC(C)C[C@H](NC(=O)[C@H](Cc1ccccc1)NC(=O)c1cnccn1)B(O)O` [bortezomib], the transcriptional response result with HepG2 cells is reported as “sharp increase in stress-response transcripts”.
`CC1(C)CCC(c2ccc(Cl)cc2)=C(CN2CCN(c3ccc(C(=O)NS(=O)(=O)c4ccc(N[C@H](CCN5CCOCC5)CSc5ccccc5)c(S(=O)(=O)C(F)(F)F)c4)cc3)CC2)C1` [ABT-263, navitoclax]: in the assay on T47D cells, the “combination effect with bortezomib” value is on record as “synergy” and the “combination effect with ixazomib” value is reported as “synergy”. Also, the “toxicity at lower concentrations than 1 uM” value in assay [1] was “a similar level of toxicity was observed”.
